Source: US20100316728A1, “Therapeutic mask and Method of Treatment Employing the Same” (priority 2009, published 2010)
“And” between values parts separate entries of the source, which are not always exact repeats. Equal values may be shown once.

Experiments:
Format in all cases: in vivo, human
patients [1] = experiment: Numbness felt by patients using the mask (with Lidocaine); conditions: per patient
Description: A separate and distinct benefit has been discovered through the use of the instant invention. […] This aids the speed in which the process can be performed on a patient.

patients [2] = experiment: Pain level felt by patients using the mask (with Lidocaine)
patients [3] = experiment: Patient questionnaire on mask application, removal and skin reactions (dryness, burning, redness, itching, stinging); conditions: per patient, yes/no
[4] = Table IX, CO2 procedure, unmasked side
[5] = Table X, CO2 procedure, unmasked side
[6] = Table XI, unmasked side, 0-10 scale
[7] = Pain Rate section, Results with Lidocaine, right side = side without mask, per patient
[8] = Results with Lidocaine, left side, mask on one side only, one value per patient, 10 = highest pain
[9] = Results with Lidocaine, right side, mask on one side only, one value per patient, 10 = highest pain
[10] = Table IX, CO2 procedure, unmasked side, per patient
[11] = Table VIII Pain Data, unmasked side, per patient
[12] = Table X, CO2 procedure, unmasked side, per patient
[13] = Table XII, unmasked side, 0-10 scale, per patient

CCN(CC)CC(=O)Nc1c(C)cccc1C [Lidocaine]
Numbness Cheeks- (Left Side) (patients [1]; 1-10 scale, cheeks, left side): 4 and 8 and 9 and 3 | Numbness Cheeks- (Right Side) (patients [1]; 1-10 scale, cheeks, right side): 7 (3×) and 3 and 5 and 4 and 6 | Numbness- Chin (Left Side) (patients [1]; 1-10 scale, chin, left side): 4 and 8 and 9 and 7 | Numbness- Chin (Right Side) (patients [1]; 1-10 scale, chin, right side): 3 and 4 (2×) and 5 and 7 (2×) and 6 | Numbness- Forehead (Left Side) (patients [1]; 1-10 scale, forehead, left side): 4 and 8 and 9 and 2 | Numbness- Forehead (Right Side) (patients [1]; 1-10 scale, forehead, right side): 4 (2×) and 3 and 6 (2×) and 7 and 8 | Numbness- Mouth (Left Side) (patients [1]; 1-10 scale, mouth, left side): 4 and 8 and 9 and 5 | Numbness- Mouth (Right Side) (patients [1]; 1-10 scale, mouth, right side): 5 and 3 and 6 (2×) and 7 and 4 and 8 | Numbness Cheeks- (Unmasked Side) (patients [1]; [4]): 8 (3×) and 6 (4×) | Numbness- Chin (Unmasked Side) (patients [1]; [4]): 9 and 6 (4×) and 8 (2×) | Numbness- Forehead (Unmasked Side) (patients [1]; [4]): 9 and 6 (4×) and 8 (2×) | Numbness- Mouth (Unmasked Side) (patients [1]; [4]): 8 (3×) and 6 (4×) | Numbness Cheeks- (Unmasked Side) (patients [1]; [5]): 8 (3×) and 6 (4×) | Numbness- Chin (Unmasked Side) (patients [1]; [5]): 9 and 6 (4×) and 8 (2×) | Numbness- Forehead (Unmasked Side) (patients [1]; [5]): 9 and 6 (4×) and 8 (2×) | Numbness- Mouth (Unmasked Side) (patients [1]; [5]): 8 (3×) and 6 (4×) | Numbness Average Unmasked Side (patients [1]; Table XI summary, 0-10 scale): 8.5 and 6 (4×) and 8 (2×) | Average (patients [1]; Table XI, average numbness, unmasked side, 0-10 scale): 8.5 and 6 (4×) and 8 (2×) | Numbness Cheeks- (Unmasked Side) (patients [1]; [6]): 8 (3×) and 6 (4×) | Numbness- Chin (Unmasked Side) (patients [1]; [6]): 9 and 6 (4×) and 8 (2×) | Numbness- Forehead (Unmasked Side) (patients [1]; [6]): 9 and 6 (4×) and 8 (2×) | Numbness- Mouth (Unmasked Side) (patients [1]; [6]): 8 (3×) and 6 (4×) | Pain After proc. Cheeks (Left Side) (patients [2]; 1-10 scale, 1 least pain, 10 highest, after Fraxel or CO2 procedure, cheeks, left side): 10 and 6 and 5 | Pain After proc. Chin (Left Side) (patients [2]; 1-10 scale, 1 least pain, 10 highest, after Fraxel or CO2 procedure, chin, left side): 10 and 6 and 5 | Pain After proc. Forehead (Left Side) (patients [2]; 1-10 scale, 1 least pain, 10 highest, after Fraxel or CO2 procedure, forehead, left side): 10 and 6 | Average Right Side (patients [2]; Pain Rate section, Results with Lidocaine, average pain, right side = side without mask, per patient): 8.00 and 5.00 and 9.00 and 2.00 | Pain After proc. Cheeks (Right Side) (patients [2]; [7]): 8 and 5 and 9 and 2 | Pain After proc. Chin (Right Side) (patients [2]; [7]): 8 and 5 and 9 and 2 | Pain After proc. Forehead (Right Side) (patients [2]; [7]): 8 and 5 and 9 and 2 | Pain After proc. Mouth (Right Side) (patients [2]; [7]): 8 and 5 and 9 and 2 | Average Left Side (patients [2]; Results with Lidocaine, average pain of mouth, cheeks, forehead, chin, left side, per patient): 10.00 and 6.00 and 5.00 | Average Right Side (patients [2]; Results with Lidocaine, average pain of mouth, cheeks, forehead, chin, right side, per patient): 4.00 and 8.25 and 9.25 and 9.00 and 4.50 and 10.00 | Pain After proc. Cheeks (Left Side) (patients [2]; [8]): 10 and 6 and 5 | Pain After proc. Chin (Left Side) (patients [2]; [8]): 10 and 6 and 5 | Pain After proc. Forehead (Left Side) (patients [2]; [8]): 10 and 6 (2×) | Pain After proc. Mouth (Left Side) (patients [2]; [8]): 10 and 6 and 4 | Pain After proc. Cheeks (Right Side) (patients [2]; [9]): 4 and 7 and 8 and 9 (2×) and 10 | Pain After proc. Chin (Right Side) (patients [2]; [9]): 4 and 6 (2×) and 8 and 9 and 10 | Pain After proc. Forehead (Right Side) (patients [2]; [9]): 4 (2×) and 10 (2×) and 8 and 9 | Pain After proc. Mouth (Right Side) (patients [2]; [9]): 4 (2×) and 10 (2×) and 8 and 9 | Pain After proc. Cheeks (Unmasked Side) (patients [2]; [10]): 8 (3×) and 9 and 2 and 5 and 6 | Pain After proc. Chin (Unmasked Side) (patients [2]; [10]): 8 (3×) and 9 and 2 and 5 and 6 | Pain After proc. Forehead (Unmasked Side) (patients [2]; [10]): 8 (3×) and 9 and 2 and 5 and 7 | Pain After proc. Mouth (Unmasked Side) (patients [2]; [10]): 8 (3×) and 9 and 2 and 5 and 6 | Average Pain (Unmasked Side) (patients [2]; [11]): 8 (3×) and 9 and 2 and 5 and 6.3 | Pain After proc. Cheeks (Unmasked Side) (patients [2]; [11]): 8 (3×) and 9 and 2 and 5 and 6 | Pain After proc. Chin (Unmasked Side) (patients [2]; [11]): 8 (3×) and 9 and 2 and 5 and 6 | Pain After proc. Forehead (Unmasked Side) (patients [2]; [11]): 8 (3×) and 9 and 2 and 5 and 7 | Pain After proc. Mouth (Unmasked Side) (patients [2]; [11]): 8 (3×) and 9 and 2 and 5 and 6 | Pain After proc. Cheeks (Unmasked Side) (patients [2]; [12]): 8 (3×) and 9 and 2 and 5 and 6 | Pain After proc. Chin (Unmasked Side) (patients [2]; [12]): 8 (3×) and 9 and 2 and 5 and 6 | Pain After proc. Forehead (Unmasked Side) (patients [2]; [12]): 8 (3×) and 9 and 2 and 5 and 7 | Pain After proc. Mouth (Unmasked Side) (patients [2]; [12]): 8 (3×) and 9 and 2 and 5 and 6 | Average Pain (Unmasked Side) (patients [2]; Table XII summary, 0-10 scale, per patient): 8 (3×) and 9 and 2 and 5 and 6.3 | Average Pain (Unmasked Side) (patients [2]; [13]): 8 (3×) and 9 and 2 and 5 and 6.3 | Pain After proc. Cheeks (Unmasked Side) (patients [2]; [13]): 8 (3×) and 9 and 2 and 5 and 6 | Pain After proc. Chin (Unmasked Side) (patients [2]; [13]): 8 (3×) and 9 and 2 and 5 and 6 | Pain After proc. Forehead (Unmasked Side) (patients [2]; [13]): 8 (3×) and 9 and 2 and 5 and 7 | Pain After proc. Mouth (Unmasked Side) (patients [2]; [13]): 8 (3×) and 9 and 2 and 5 and 6 | Dryness Right side (patients [3]): no | Burning Right (patients [3]; right side): no (2×) and yes | Itching Right (patients [3]; right side): no | Redness Right (patients [3]; right side): yes (2×) and no | Stinging Right (patients [3]; right side): yes (2×) and no
